Results as given in patent US8846873B2, “Antibodies directed to GPNMB and uses thereof” (Celldex Therapeutics, Inc., priority 2004, dated 2014).
Entries after “also recorded” stand apart in the source; their conditions may differ.

Assays:
[1] = molecular target: T1, purified recombinant GPNMB (Homo sapiens, UniProt Q14956); assay: ELISA of CR011 engineered antibodies on recombinant GPNMB; type: binding; conditions: anti-FLAG-HRP detection
T1 construct: made in house; host or cells: HEK 293
T1 sequence (Q14956 23-492): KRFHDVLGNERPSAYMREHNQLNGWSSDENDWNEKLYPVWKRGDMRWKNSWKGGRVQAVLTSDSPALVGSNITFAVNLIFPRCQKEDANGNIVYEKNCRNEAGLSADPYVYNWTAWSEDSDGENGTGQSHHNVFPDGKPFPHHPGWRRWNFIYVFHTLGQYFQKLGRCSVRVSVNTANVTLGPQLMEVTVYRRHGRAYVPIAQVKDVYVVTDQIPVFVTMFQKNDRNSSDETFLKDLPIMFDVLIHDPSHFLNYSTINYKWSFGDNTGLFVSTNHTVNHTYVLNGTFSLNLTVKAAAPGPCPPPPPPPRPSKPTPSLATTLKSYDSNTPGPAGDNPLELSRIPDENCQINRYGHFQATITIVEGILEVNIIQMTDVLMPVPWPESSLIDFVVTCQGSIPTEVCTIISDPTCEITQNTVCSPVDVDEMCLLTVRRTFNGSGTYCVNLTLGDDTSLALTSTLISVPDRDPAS
Protocol: Plates were then blocked and washed. Various dilutions of the CR011 engineered antibodies were added into the wells. Plates were incubated for 1 h and washed. HRP-conjugated anti-FLAG M2 mAb (Sigma, St. Louis, Mo.) was added into the wells for 1 h, washed and the reaction developed with the TMB substrate reagent as described by the manufacturer (Pharmingen, San Jose, Calif.).
Plates were coated with human GPNMB protein tagged with His and V5. […] Binding of the recombinant mAbs (both monomer and dimer) was detected using anti-FLAG-HRP conjugated mAb M2 (Sigma).

human T cells (CD3) = assay: Flow cytometry of CR011 engineered antibodies; type: binding; conditions: 5 μg/sample/100 μl
Text: (§1) (Jackson ImmunoResearch, West Grove, Pa.) Ten thousand events were collected and analyzed on a FACSCalibur instrument (Becton Dickinson, Mountain View, Calif.).
(§2) To verify binding of the bi-scFv to human CD3 molecules, we used purified human T cells. […] Control anti-CD3 mAb bound to T cells, and control anti-GPNMB mAb bound to SK-Mel-5 tumor cells.

SK-Mel-5 cells = assay: Flow cytometry of CR011 engineered antibodies; type: binding, human; conditions: 5 μg/sample/100 μl
Text: as §1, §2

SK-Mel-5 tumor cells = assay: T lymphocyte redirected cytotoxicity (PKH2 / propidium iodine flow cytometry); type: cell-based, human; conditions: purified T cells cultured O/N with tumor cells
Protocol: Tumor cells were labeled with PKH2 green fluorescent linker kit (Sigma) and washed. Purified T cells were cultured O/N with PKH2-labeled tumor cells in the presence or absence of purified bi-scFv. Death of GPNMB positive tumor cells was measured by propidium iodine (PI) incorporation.

CR011 scFv: CR011 single chain antibody VL-L4-VH Flag; SEQ ID NO: 355
binding to recombinant GPNMB protein [1]: bound to the GPNMB target; also recorded: bind to the recombinant GPNMB protein
binding to T cells (human T cells (CD3)): did not bind CD3 positive T cells
binding to SK-Mel-5 cells (SK-Mel-5 cells): present at a low level
killing of SK-Mel-5 tumor cells by T lymphocytes (SK-Mel-5 tumor cells): did not increase killing
